From patent US10508085B2, “Compounds and methods for IDO and TDO modulation, and indications therefor” (Plexxikon Inc., priority 2016, dated 2019) come the findings set out here.

Molecules are shown by their SMILES. Like-named read-outs stand apart in the source and are kept apart here.

Test [1] concerns the target T1, human IDO (IDO1-expressing HEK293 cells) (Homo sapiens, UniProt P14902).
T1 construct: expressed in transfected cells
As to the kind of experiment: Cell based kynurenine assay, IDO1-expressing HEK293 cell clones. The following applies: IDO1-expressing HEK293 cells, geometric mean, read-out: HEK293 IDO1 Kynurenine GMean IC50 (μM) (Cellular Assay). On the procedure:
(§1) Determine Inhibitor Activity Against IDO or TDO in Cell Based Kynurenine Assay
(§2) IDO1-expressing or TDO-expressing HEK293 cell clones are generated upon stable transfection of plasmids expressing human IDO or human TDO under the control of CMV promoter. Cells are selected in DMEM media supplemented with 10% fetal bovine serum and 1 mg/ml G418 at 37° C. in a humidified incubator supplied with 5% CO2. The assays are performed as follows.
(§3) Cells were seeded in a 96 well plate in 50 μL of culture media at a density of 2.5×10^4 per well. Serial dilutions of compounds (in total volume of 50 μL culture media) are added into cells. 4 wells containing 0.2% DMSO treated cells serve as high controls and 4 wells containing media only with 0.2% DMSO serve as low controls. After 24 hours of incubation, the supernatant was transferred to a 384 well reaction plate and the kynurenine level determined. The percentage inhibition at individual concentrations relative to high and low controls is calculated. The data is analyzed by using nonlinear regression to generate IC50 values.

Test [2] concerns the target T2, human TDO (TDO-expressing HEK293 cells) (Homo sapiens, UniProt P48775).
T2 construct: expressed in transfected cells
As to the kind of experiment: Cell based kynurenine assay, TDO-expressing HEK293 cell clones. The following applies: TDO-expressing HEK293 cells, geometric mean, read-out: HEK293 TDO Kynurenine GMean IC50 (μM) (Cellular Assay). On the procedure: as §1, §2, §3

In test [3] the target is T3, Human Tryptophan 2,3-dioxygenase (TDO) (Homo sapiens, UniProt P48775).
T3 construct: His tag (N); made in house; host or cells: E. coli
T3 sequence (P48775 whole entry): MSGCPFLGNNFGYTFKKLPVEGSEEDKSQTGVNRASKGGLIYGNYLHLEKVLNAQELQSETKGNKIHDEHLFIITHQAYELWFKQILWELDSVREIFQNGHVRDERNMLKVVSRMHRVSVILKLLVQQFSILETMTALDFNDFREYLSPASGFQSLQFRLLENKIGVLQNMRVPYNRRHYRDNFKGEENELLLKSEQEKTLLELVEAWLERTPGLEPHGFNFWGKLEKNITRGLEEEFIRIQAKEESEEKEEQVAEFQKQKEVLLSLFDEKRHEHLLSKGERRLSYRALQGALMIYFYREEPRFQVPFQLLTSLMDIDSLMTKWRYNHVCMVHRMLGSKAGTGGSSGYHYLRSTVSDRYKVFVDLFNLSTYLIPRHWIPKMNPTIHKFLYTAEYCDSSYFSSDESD
As to the kind of experiment: Human TDO enzymatic assay (kynurenine level). The format is biochemical. The following applies: 1 nM TDO, 350 μM L-Trp; geometric mean; read-out: TDO GMean: IC50 (μM) (Biochemical Assay). Summed up: (§4)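 N-His human IDO (6 nM, 10 μM L-Trp, 5 μM methylene blue, 20 min) or TDO (1 nM, 350 μM L-Trp, 0.4 μM methylene blue, 70 min) run at room temp in pH 6.5 phosphate with ascorbate, catalase, Tween 20. TCA stop, 30 min 50 °C converts N-formylkynurenine to kynurenine; IC50 by nonlinear regression.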

The target in test [4] is T4, Human Indoleamine 2,3-dioxygenase (IDO) (Homo sapiens, UniProt P14902).
T4 construct: His tag (N); made in house; host or cells: E. coli
T4 sequence (P14902 whole entry): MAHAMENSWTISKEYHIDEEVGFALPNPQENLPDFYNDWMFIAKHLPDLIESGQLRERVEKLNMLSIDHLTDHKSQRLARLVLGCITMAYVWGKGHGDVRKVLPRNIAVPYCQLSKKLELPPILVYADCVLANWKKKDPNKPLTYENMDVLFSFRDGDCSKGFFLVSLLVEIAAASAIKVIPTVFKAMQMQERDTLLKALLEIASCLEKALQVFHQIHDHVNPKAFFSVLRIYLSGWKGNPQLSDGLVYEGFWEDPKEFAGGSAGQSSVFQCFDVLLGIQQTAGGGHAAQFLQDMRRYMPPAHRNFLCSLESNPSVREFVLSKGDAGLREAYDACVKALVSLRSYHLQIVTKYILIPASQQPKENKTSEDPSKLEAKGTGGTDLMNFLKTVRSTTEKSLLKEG
As to the kind of experiment: Human IDO enzymatic assay (kynurenine level). The following applies: 6 nM IDO, 10 μM L-Trp; geometric mean; read-out: IDO1 GMean: IC50 (μM) (Biochemical Assay). The format is biochemical. Put shortly:
as §4

T2 sequence (P48775 whole entry): as the sequence (P48775 whole entry) above
T1 sequence (P14902 whole entry): as the sequence (P14902 whole entry) above

Turning to `CC(C)(C1CCN(C(=O)Cc2ccc(F)c(Cl)c2)CC1)[C@H](O)c1cc(Cl)cc2cn[nH]c12` [Compound P-0519, (S)-1-(4-(1-(5-chloro-1H-indazol-7-yl)-1-hydroxy-2-methylpropan-2-yl)piperidin-1-yl)-2-(3-chloro-4-fluorophenyl)ethan-1-one], the IC50 in test [1] (24 hours), in test [2] (24 hours), in test [3] and in test [4] was 0.0001 to 10 µM in each case.

On to `CS(=O)(=O)NC12CCC(C(O)c3cc(Cl)cc4cn[nH]c34)(CC1)CC2` (stereo not shown) [Compound P-0415, N-(4-((5-chloro-1H-indazol-7-yl)(hydroxy)methyl)bicyclo[2.2.2]octan-1-yl) methanesulfonamide], for which the IC50 was 0.0001 to 10 µM in test [1] (24 hours), greater than 10 µM in test [2] (24 hours), 0.0001 to 10 µM in test [3] and 0.0001 to 10 µM in test [4].

On to `CC1(C(O)c2c(Cl)ccn3cncc23)CCCCC1` (stereo not shown) [Compound P-0098, (7-chloroimidazo[1,5-a]pyridin-8-yl)(1-methylcyclohexyl)methanol], for which the IC50 in test [1] (24 hours incubation) is 0.0001 to 10 µM; in test [2] (24 hours incubation), greater than 10 µM; in test [3] it was 0.0001 to 10 µM; in test [4] it was 0.0001 to 10 µM.

With `OC(c1cc(Cl)cc2cn[nH]c12)C1CCCC1` (stereo not shown) [Compound P-0005, (5-chloro-1H-indazol-7-yl)(cyclopentyl)methanol], the IC50 in test [1] (24 hours incubation), in test [2] (24 hours incubation), in test [3] and in test [4] was 0.0001 to 10 µM in each case.

Take `CC(C)(C1CCN(C(=O)Nc2cccc(F)c2)CC1)[C@@H](O)c1cc(Cl)cc2cn[nH]c12` [Compound P-0434, (R)-4-(1-(5-chloro-1H-indazol-7-yl)-1-hydroxy-2-methylpropan-2-yl)-N-(3-fluorophenyl) piperidine-1-carboxamide]: the IC50 in test [1] (24 hours) lay within 0.0001 to 10 µM; in test [2] (24 hours), 0.0001 to 10 µM; in test [3], 0.0001 to 10 µM; in test [4], 10 to 100 µM.

As for `COC(=O)N1CC2CCC(C1)C2CC(O)c1cc(Cl)cc2cn[nH]c12` (stereo not shown) [Compound P-0329, methyl 8-(2-(5-chloro-1H-indazol-7-yl)-2-hydroxyethyl)-3-azabicyclo [3.2.1]octane-3-carboxylate], the IC50 in test [1] (24 hours incubation), in test [2] (24 hours incubation), in test [3] and in test [4] was 0.0001 to 10 µM each time.

Turning to `CC(C)(C1CCN(C(=O)c2cccnc2)CC1)C(O)c1cc(Cl)cc2cn[nH]c12` (stereo not shown) [Compound P-0362, (4-(1-(5-chloro-1H-indazol-7-yl)-1-hydroxy-2-methylpropan-2-yl)piperidin-1-yl)(pyridin-3-yl)methanone], the IC50 in test [1] (24 hours incubation), in test [2] (24 hours incubation), in test [3] and in test [4] was 0.0001 to 10 µM in each case.

As to `O=C(Nc1ccc(Cl)cc1)N1CCC(C(F)(F)C(O)c2cc(Cl)cc3cn[nH]c23)CC1` (stereo not shown) [Compound P-0484, 4-(2-(5-chloro-1H-indazol-7-yl)-1,1-difluoro-2-hydroxyethyl)-N-(4-chlorophenyl) piperidine-1-carboxamide], the IC50 in test [1] (24 hours), in test [2] (24 hours), in test [3] and in test [4] was 0.0001 to 10 µM each time.

For the molecule `CC(C)(Cc1ccccc1)C(O)c1cc(Cl)cc2cn[nH]c12` (stereo not shown) [Compound P-0026, 1-(5-chloro-1H-indazol-7-yl)-2,2-dimethyl-3-phenylpropan-1-ol], the IC50 in test [1] (24 hours incubation), in test [2] (24 hours incubation), in test [3] and in test [4] was 0.0001 to 10 µM in each case.

As for `CS(=O)(=O)NC1CC(O)(c2cc(Cl)cc3cn[nH]c23)C1` (stereo not shown) [Compound P-0038, N-(3-(5-chloro-1H-indazol-7-yl)-3-hydroxycyclobutyl)methanesulfonamide], the half-inhibitory concentration (IC50) is greater than 10 µM in test [1] (24 hours incubation), 0.0001 to 10 µM in test [2] (24 hours incubation), 0.0001 to 10 µM in test [3] and 0.0001 to 10 µM in test [4].

By IC50 is commonly meant the concentration that inhibits the measured activity by half.
